Laboratory results taken from PubChem BioAssay AID330 (DTP/NCI, 2004).
“And” between values parts separate entries of the source, which are not always exact repeats. Equal entries are not always repeated. Inconclusive results and toxic doses are left out.

System: P388 leukemia ip, CD2F1 mice, survival T/C
Assay: NCI In Vivo Anticancer Drug Screen. Data for tumor model P388 Leukemia (intraperitoneal) in CD2F1 (CDF1) mice
Conditions: endpoint: median survival time, higher = longer survival
Summary of the method: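 Mice carrying the transplanted tumor received test compound or vehicle. Survival was recorded in each group, and the value is the treated-group measurement divided by that of the vehicle-treated control group.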

[1] = dose: 25.0 mg/kg/injection, schedule: Q01DX009 (ip), vehicle: saline with Tween-80
[2] = dose: 50.0 mg/kg/injection, schedule: Q01DX009 (ip), vehicle: saline with Tween-80
[3] = dose: 100.0 mg/kg/injection, schedule: Q01DX009 (ip), vehicle: saline with Tween-80
[4] = dose: 50.0 mg/kg/injection, schedule: Q01DX009 (ip), vehicle: saline
[5] = dose: 100.0 mg/kg/injection, schedule: Q01DX009 (ip), vehicle: saline
[6] = dose: 200.0 mg/kg/injection, schedule: Q01DX009 (ip), vehicle: saline with Tween-80
[7] = dose: 200.0 mg/kg/injection, schedule: Q01DX009 (ip), vehicle: saline
[8] = dose: 60.0 mg/kg/injection, schedule: Q01DX005 (ip), vehicle: saline with Tween-80
[9] = dose: 120.0 mg/kg/injection, schedule: Q01DX005 (ip), vehicle: saline with Tween-80
[10] = dose: 50.0 mg/kg/injection, schedule: Q01DX005 (ip), vehicle: Klucel (hydroxypropylcellulose) (HPC)

C[C@]12CC[C@H](O)C[C@@H]1CC[C@@H]1[C@@H]2C(=O)C[C@]2(C)C3=CC(=O)O[C@H]3C[C@@H]12
T/C [1]: 109 % of control | T/C (dose: 25.0 mg/kg/injection, schedule: Q04DX003 (ip), vehicle: saline with Tween-80): 117 % of control | T/C [2]: 118 % of control | T/C (dose: 50.0 mg/kg/injection, schedule: Q04DX003 (ip), vehicle: saline with Tween-80): 104 % of control | T/C [3]: 86 % of control | T/C (dose: 100.0 mg/kg/injection, schedule: Q04DX003 (ip), vehicle: saline with Tween-80): 113 % of control and 95 % of control

CN(C)CC1(C)C(=O)N(C)C(=O)N(C2CCCCC2)C1=O (stereo unspecified)
T/C [1]: 100 % of control | T/C (dose: 25.0 mg/kg/injection, schedule: Q01DX009 (ip), vehicle: saline): 100 % of control | T/C [2]: 107 % of control | T/C [4]: 104 % of control and 105 % of control | T/C [3]: 107 % of control | T/C [5]: 113 % of control | T/C [6]: 117 % of control | T/C [7]: 122 % of control

c1ccc(N2CN(c3ccccc3)C2)cc1
T/C (dose: 60.0 mg/kg/injection, schedule: Q01DX005 (ip), vehicle: Klucel (hydroxypropylcellulose) (HPC)): 88 % of control | T/C (dose: 120.0 mg/kg/injection, schedule: Q01DX005 (ip), vehicle: Klucel (hydroxypropylcellulose) (HPC)): 86 % of control | T/C (dose: 240.0 mg/kg/injection, schedule: Q01DX005 (ip), vehicle: Klucel (hydroxypropylcellulose) (HPC)): 88 % of control

COC(=O)c1nc2nnc(NC(=O)Nc3ccc(Cl)cc3)n2c(-c2ccccc2)c1C
T/C [8]: 96 % of control | T/C [9]: 95 % of control

COc1ccc(C(=O)N2C=CC(=Cc3ccccc3)C=C2)cc1
T/C (dose: 6.25 mg/kg/injection, schedule: Q01DX009 (ip), vehicle: Klucel (hydroxypropylcellulose) (HPC)): 103 % of control | T/C (dose: 12.5 mg/kg/injection, schedule: Q01DX009 (ip), vehicle: Klucel (hydroxypropylcellulose) (HPC)): 102 % of control | T/C (dose: 25.0 mg/kg/injection, schedule: Q01DX009 (ip), vehicle: Klucel (hydroxypropylcellulose) (HPC)): 97 % of control

O=S(=O)(OC1=CCCCC1)C(F)(F)F
T/C [2]: 100 % of control | T/C [3]: 109 % of control | T/C [6]: 112 % of control | T/C (dose: 400.0 mg/kg/injection, schedule: Q01DX009 (ip), vehicle: saline with Tween-80): 115 % of control

C#CCNC(=O)/C(C)=C(\C)c1ccc(F)cc1
T/C (dose: 50.0 mg/kg/injection, schedule: Q04DX002 (ip), vehicle: Klucel (hydroxypropylcellulose) (HPC)): 101 % of control | T/C (dose: 100.0 mg/kg/injection, schedule: Q04DX002 (ip), vehicle: Klucel (hydroxypropylcellulose) (HPC)): 103 % of control | T/C (dose: 200.0 mg/kg/injection, schedule: Q04DX002 (ip), vehicle: Klucel (hydroxypropylcellulose) (HPC)): 111 % of control

CCS/C(C#N)=C/c1ccccc1Cl
T/C [2]: 103 % of control | T/C [3]: 112 % of control

O=S(=O)(Cc1ccccc1)c1ccccc1
T/C [4]: 118 % of control | T/C [5]: 118 % of control | T/C [7]: 116 % of control

NC(=O)CC(NC(=O)OCC1c2ccccc2-c2ccccc21)C(=O)O (stereo unspecified)
T/C (dose: 12.5 mg/kg/injection, schedule: Q01DX005 (ip), vehicle: Klucel (hydroxypropylcellulose) (HPC)): 92 % of control | T/C (dose: 25.0 mg/kg/injection, schedule: Q01DX005 (ip), vehicle: Klucel (hydroxypropylcellulose) (HPC)): 100 % of control | T/C [10]: 100 % of control and 105 % of control

Cc1cc(=O)c2ccc(N(C)C)cc2[nH]1
T/C (dose: 50.0 mg/kg/injection, schedule: Q01DX005 (ip), vehicle: saline with Tween-80): 95 % of control | T/C (dose: 100.0 mg/kg/injection, schedule: Q01DX005 (ip), vehicle: saline with Tween-80): 96 % of control | T/C (dose: 200.0 mg/kg/injection, schedule: Q01DX005 (ip), vehicle: saline with Tween-80): 101 % of control

COc1cc[n+](CC(=O)c2c[nH]c3ccccc23)cc1
T/C (dose: 50.0 mg/kg/injection, schedule: Q01DX009 (ip), vehicle: Klucel (hydroxypropylcellulose) (HPC)): 103 % of control | T/C (dose: 100.0 mg/kg/injection, schedule: Q01DX009 (ip), vehicle: Klucel (hydroxypropylcellulose) (HPC)): 109 % of control

CC(=Nc1ccc2c(c1)C(=O)c1ccc(N=C(C)N(C)C)cc1C2=O)N(C)C
T/C [10]: 100 % of control | T/C (dose: 100.0 mg/kg/injection, schedule: Q01DX005 (ip), vehicle: Klucel (hydroxypropylcellulose) (HPC)): 109 % of control | T/C (dose: 200.0 mg/kg/injection, schedule: Q01DX005 (ip), vehicle: Klucel (hydroxypropylcellulose) (HPC)): 100 % of control

O=C(CNCCCCNCCCNCC(=O)C(O)C(O)C(O)CO)C(O)C(O)C(O)CO (stereo unspecified)
T/C (dose: 30.0 mg/kg/injection, schedule: Q01DX005 (ip), vehicle: saline): 104 % of control | T/C (dose: 60.0 mg/kg/injection, schedule: Q01DX005 (ip), vehicle: saline): 101 % of control

CCOC(=O)/C=C1\CCC(C)n2c1nccc2=O (stereo unspecified)
T/C [8]: 97 % of control | T/C [9]: 101 % of control | T/C (dose: 240.0 mg/kg/injection, schedule: Q01DX005 (ip), vehicle: saline with Tween-80): 98 % of control

Cn1c2nc(-[n+]3ccccc3)nc-2c([O-])n(C)c1=O
T/C (dose: 100.0 mg/kg/injection, schedule: Q04DX003 (ip), vehicle: saline): 94 % of control | T/C (dose: 200.0 mg/kg/injection, schedule: Q04DX003 (ip), vehicle: saline): 100 % of control | T/C (dose: 400.0 mg/kg/injection, schedule: Q04DX003 (ip), vehicle: saline): 100 % of control

CCOC(=O)/C=C(\C)NC(C)=NC(C)(C)C
T/C [4]: 93 % of control | T/C [5]: 89 % of control

C1CCC2(CC1)CSC2.[Br][Hg][Br]
T/C (dose: 6.25 mg/kg/injection, schedule: Q01DX001 (ip), vehicle: saline with Tween-80): 89 % of control | T/C (dose: 12.5 mg/kg/injection, schedule: Q01DX001 (ip), vehicle: saline with Tween-80): 87 % of control

CC1=CC(=O)C(O)=C/C1=C\C=C\c1ccccc1
T/C (dose: 2.5 mg/kg/injection, schedule: Q01DX009 (ip), vehicle: saline with Tween-80): 110 % of control | T/C (dose: 5.0 mg/kg/injection, schedule: Q01DX009 (ip), vehicle: saline with Tween-80): 104 % of control | T/C (dose: 10.0 mg/kg/injection, schedule: Q01DX009 (ip), vehicle: saline with Tween-80): 103 % of control

C/C=C(\CCNCCCC)[Si](C)(C)C
T/C (dose: 100.0 mg/kg/injection, schedule: Q04DX002 (ip), vehicle: saline): 104 % of control | T/C (dose: 200.0 mg/kg/injection, schedule: Q04DX002 (ip), vehicle: saline): 101 % of control

O=C1C=CCC12CC=CC2=O
T/C (dose: 6.25 mg/kg/injection, schedule: Q01DX001 (ip), vehicle: Klucel (hydroxypropylcellulose) (HPC)): 100 % of control and 105 % of control | T/C (dose: 12.5 mg/kg/injection, schedule: Q01DX001 (ip), vehicle: Klucel (hydroxypropylcellulose) (HPC)): 117 % of control and 94 % of control | T/C (dose: 25.0 mg/kg/injection, schedule: Q01DX001 (ip), vehicle: Klucel (hydroxypropylcellulose) (HPC)): 100 % of control and 123 % of control

C1CN1P1(N2CC2)=NP(N2CC2)(N2CC2)=NP(N2CC2)(N2CC2)=N1
T/C (dose: 5.0 mg/kg/injection, schedule: Q01DX009 (ip), vehicle: saline): 231 % of control | T/C (dose: 10.0 mg/kg/injection, schedule: Q01DX009 (ip), vehicle: saline): 222 % of control | T/C (dose: 20.0 mg/kg/injection, schedule: Q01DX009 (ip), vehicle: saline): 122 % of control

CC12CCC3C(CCC4C(C)(C)C(O)CCC34C)(C1)OC2CO (stereo unspecified)
T/C (dose: 2.25 mg/kg/injection, schedule: Q01DX009 (ip), vehicle: Klucel (hydroxypropylcellulose) (HPC)): 104 % of control | T/C (dose: 4.5 mg/kg/injection, schedule: Q01DX009 (ip), vehicle: Klucel (hydroxypropylcellulose) (HPC)): 108 % of control | T/C (dose: 9.0 mg/kg/injection, schedule: Q01DX009 (ip), vehicle: Klucel (hydroxypropylcellulose) (HPC)): 104 % of control | T/C (dose: 18.0 mg/kg/injection, schedule: Q01DX009 (ip), vehicle: Klucel (hydroxypropylcellulose) (HPC)): 118 % of control

CC1=C(CO)C(=O)OC(C(C)C2CCC3C4CC5OC56C(O)C(N5CCCCC5)CC(=O)C6(C)C4CCC23C)C1 (stereo unspecified)
T/C (dose: 7.0 mg/kg/injection, schedule: Q01DX005 (ip), vehicle: Klucel (hydroxypropylcellulose) (HPC)): 101 % of control | T/C (dose: 14.0 mg/kg/injection, schedule: Q01DX005 (ip), vehicle: Klucel (hydroxypropylcellulose) (HPC)): 94 % of control | T/C (dose: 28.0 mg/kg/injection, schedule: Q01DX005 (ip), vehicle: Klucel (hydroxypropylcellulose) (HPC)): 96 % of control | T/C (dose: 56.0 mg/kg/injection, schedule: Q01DX005 (ip), vehicle: Klucel (hydroxypropylcellulose) (HPC)): 101 % of control | T/C (dose: 112.0 mg/kg/injection, schedule: Q01DX005 (ip), vehicle: Klucel (hydroxypropylcellulose) (HPC)): 97 % of control

CCOC(=O)CC(=O)C(C)(OCC)OCC
T/C [5]: 157 % of control | T/C [7]: 190 % of control

CN(C)P1(=O)OCC(C(C)(C)C)CN1c1ccccc1 (stereo unspecified)
T/C (dose: 100.0 mg/kg/injection, schedule: Q04DX003 (ip), vehicle: Klucel (hydroxypropylcellulose) (HPC)): 97 % of control | T/C (dose: 200.0 mg/kg/injection, schedule: Q04DX003 (ip), vehicle: Klucel (hydroxypropylcellulose) (HPC)): 97 % of control
